{"source": "patent US6914045B2", "about": "“Glycopeptide antibiotics” (Wyeth Holdings Corporation, priority 2001, dated 2005)", "test_in_all_cases": "in vitro antibacterial evaluation, MIC by broth dilution", "format_in_all_cases": "cell-based", "key": {"Enterococcus sp.": {"tested_on": "Enterococcus sp.", "conditions": "broth dilution, 18 hours at 35° C.; for MIC Enterococcus faecalis (ATCC 29212): strain ATCC 29212; for MIC Enterococcus faecalis (GC 2242): strain GC 2242; for MIC Enterococcus faecium (GC 2243): strain GC 2243; for MIC Enterococcus faecalis (GC 2691): strain GC 2691; for MIC Enterococcus faecalis (GC 3059): strain GC 3059; for MIC Enterococcus faecalis (GC 4552): strain GC 4552; for MIC Enterococcus faecalis (GC 4553): strain GC 4553; for MIC Enterococcus faecalis (GC 4554): strain GC 4554; for MIC Enterococcus faecium (GC 4556): strain GC 4556; for MIC Enterococcus faecium (GC 4557): strain GC 4557; for MIC Enterococcus avium (GC 4558): strain GC 4558; for MIC Enterococcus faecalis (GC 6189): strain GC 6189", "summary_of_the_method": "(§1)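 Following National Committee for Clinical Laboratory Standards recommendations (M7-A2), susceptibility was measured by dilution in Muller-Hinton II […]. Bacteria were seeded at 5×10^5 CFU/mL against compound concentrations from 64 down to 0.06 μg/mL.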"}, "Escherichia coli": {"tested_on": "Escherichia coli", "summary_of_the_method": "as §1"}, "Staphylococcus sp.": {"tested_on": "Staphylococcus sp.", "conditions": "broth dilution, 18 hours at 35° C.; for MIC Staphylococcus aureus (GC 1131): strain GC 1131", "summary_of_the_method": "as §1"}, "Streptococcus sp.": {"tested_on": "Streptococcus sp.", "conditions": "broth dilution, 18 hours at 35° C.; for MIC Streptococcus pneumoniae (ATCC 6301): strain ATCC 6301; for MIC Streptococcus pneumoniae (GC 1894): strain GC 1894; for MIC Streptococcus pyogenes (GC 4563): strain GC 4563; for MIC Streptococcus agalactiae (GC 4564): strain GC 4564; for MIC Streptococcus pneumoniae (GC 4565): strain GC 4565", "summary_of_the_method": "as §1"}}, "data": [{"molecule": "CCOc1cc(C2OCC3OC(OC4C(CO)OC(Oc5ccc(CC6NC(=O)C(C(C)c7ccccc7)NC(=O)CNC(=O)C(CO)NC(=O)C(C(O)C7CNC(=N)N7C7OC(CO)C(O)C(O)C7O)NC(=O)C(C(O)C7CNC(=N)N7)NC6=O)cc5)C(O)C4O)C(O)C(O)C3O2)ccc1[N+](=O)[O-]", "note": "(centres unmarked) [Example 167]", "values": [{"measurement": "MIC Enterococcus faecalis (ATCC 29212)", "setting": "Enterococcus sp.; inoculum 5×10^5 CFU/mL", "result": 32, "unit": "µg/mL"}, {"measurement": "MIC Enterococcus faecalis (GC 2242)", "setting": "Enterococcus sp.; inoculum 5×10^5 CFU/mL", "result": 32, "unit": "µg/mL"}, {"measurement": "MIC Enterococcus faecium (GC 2243)", "setting": "Enterococcus sp.; inoculum 5×10^5 CFU/mL", "result": 32, "unit": "µg/mL"}, {"measurement": "MIC Enterococcus faecalis (GC 2691)", "setting": "Enterococcus sp.; inoculum 5×10^5 CFU/mL", "result": 32, "unit": "µg/mL"}, {"measurement": "MIC Enterococcus faecalis (GC 3059)", "setting": "Enterococcus sp.; inoculum 5×10^5 CFU/mL", "result": 32, "unit": "µg/mL"}, {"measurement": "MIC Enterococcus faecalis (GC 4552)", "setting": "Enterococcus sp.; inoculum 5×10^5 CFU/mL", "result": 32, "unit": "µg/mL"}, {"measurement": "MIC Enterococcus faecalis (GC 4553)", "setting": "Enterococcus sp.; inoculum 5×10^5 CFU/mL", "result": 32, "unit": "µg/mL"}, {"measurement": "MIC Enterococcus faecalis (GC 4554)", "setting": "Enterococcus sp.; inoculum 5×10^5 CFU/mL", "result": 32, "unit": "µg/mL"}, {"measurement": "MIC Enterococcus faecium (GC 4556)", "setting": "Enterococcus sp.; inoculum 5×10^5 CFU/mL", "result": 32, "unit": "µg/mL"}, {"measurement": "MIC Enterococcus faecium (GC 4557)", "setting": "Enterococcus sp.; inoculum 5×10^5 CFU/mL", "result": 8, "unit": "µg/mL"}, {"measurement": "MIC Enterococcus avium (GC 4558)", "setting": "Enterococcus sp.; inoculum 5×10^5 CFU/mL", "result": 32, "unit": "µg/mL"}, {"measurement": "MIC Enterococcus faecalis (GC 6189)", "setting": "Enterococcus sp.; inoculum 5×10^5 CFU/mL", "result": 32, "unit": "µg/mL"}, {"measurement": "MIC Enterococcus faecalis (ATCC 29212)", "setting": "Enterococcus sp.", "result": 32, "unit": "µg/mL"}, {"measurement": "MIC Enterococcus faecalis (GC 2242)", "setting": "Enterococcus sp.", "result": 32, "unit": "µg/mL"}, {"measurement": "MIC Enterococcus faecium (GC 2243)", "setting": "Enterococcus sp.", "result": 32, "unit": "µg/mL"}, {"measurement": "MIC Enterococcus faecalis (GC 2691)", "setting": "Enterococcus sp.", "result": 32, "unit": "µg/mL"}, {"measurement": "MIC Enterococcus faecalis (GC 3059)", "setting": "Enterococcus sp.", "result": 32, "unit": "µg/mL"}, {"measurement": "MIC Enterococcus faecalis (GC 4552)", "setting": "Enterococcus sp.", "result": 32, "unit": "µg/mL"}, {"measurement": "MIC Enterococcus faecalis (GC 4553)", "setting": "Enterococcus sp.", "result": 32, "unit": "µg/mL"}, {"measurement": "MIC Enterococcus faecalis (GC 4554)", "setting": "Enterococcus sp.", "result": 32, "unit": "µg/mL"}, {"measurement": "MIC Enterococcus faecium (GC 4556)", "setting": "Enterococcus sp.", "result": 32, "unit": "µg/mL"}, {"measurement": "MIC Enterococcus faecium (GC 4557)", "setting": "Enterococcus sp.", "result": 8, "unit": "µg/mL"}, {"measurement": "MIC Enterococcus avium (GC 4558)", "setting": "Enterococcus sp.", "result": 32, "unit": "µg/mL"}, {"measurement": "MIC Enterococcus faecalis (GC 6189)", "setting": "Enterococcus sp.", "result": 32, "unit": "µg/mL"}, {"measurement": "MIC Escherichia coli (ATCC 25922)", "setting": "Escherichia coli; strain ATCC 25922, 18 hours at 35° C.", "result": ">128", "unit": "µg/mL"}, {"measurement": "MIC Escherichia coli (GC 4559)", "setting": "Escherichia coli; strain GC 4559, 18 hours at 35° C.", "result": ">128", "unit": "µg/mL"}, {"measurement": "MIC Escherichia coli (GC 4560)", "setting": "Escherichia coli; strain GC 4560, 18 hours at 35° C.", "result": 8, "unit": "µg/mL"}, {"measurement": "MIC Staphylococcus aureus (GC 1131)", "setting": "Staphylococcus sp.; inoculum 5×10^5 CFU/mL", "result": 16, "unit": "µg/mL"}, {"measurement": "MIC Staphylococcus aureus (ATCC 29213)", "setting": "Staphylococcus sp.; strain ATCC 29213", "result": 16, "unit": "µg/mL"}, {"measurement": "MIC Staphylococcus aureus (GC 1131)", "setting": "Staphylococcus sp.", "result": 16, "unit": "µg/mL"}, {"measurement": "MIC Staphylococcus aureus (GC 3051)", "setting": "Staphylococcus sp.; strain GC 3051", "result": 16, "unit": "µg/mL"}, {"measurement": "MIC Staphylococcus aureus (GC 3053)", "setting": "Staphylococcus sp.; strain GC 3053", "result": 16, "unit": "µg/mL"}, {"measurement": "MIC Staphylococcus aureus (GC 4541)", "setting": "Staphylococcus sp.; strain GC 4541", "result": 8, "unit": "µg/mL"}, {"measurement": "MIC Staphylococcus aureus (GC 4542)", "setting": "Staphylococcus sp.; strain GC 4542", "result": 16, "unit": "µg/mL"}, {"measurement": "MIC Staphylococcus aureus-SMITH (GC 4543)", "setting": "Staphylococcus sp.; strain GC 4543", "result": 16, "unit": "µg/mL"}, {"measurement": "MIC Staphylococcus aureus (GC 4544)", "setting": "Staphylococcus sp.; strain GC 4544", "result": 16, "unit": "µg/mL"}, {"measurement": "MIC Staphylococcus aureus (GC 4545)", "setting": "Staphylococcus sp.; strain GC 4545", "result": 16, "unit": "µg/mL"}, {"measurement": "MIC Staphylococcus haemolyticus (GC 4546)", "setting": "Staphylococcus sp.; strain GC 4546", "result": 16, "unit": "µg/mL"}, {"measurement": "MIC Coagulase Negative Staphylococcus (GC 4547)", "setting": "Staphylococcus sp.; strain GC 4547", "result": 8, "unit": "µg/mL"}, {"measurement": "MIC Coagulase Negative Staphylococcus (GC 4548)", "setting": "Staphylococcus sp.; strain GC 4548", "result": 8, "unit": "µg/mL"}, {"measurement": "MIC Coagulase Negative Staphylococcus (GC 4549)", "setting": "Staphylococcus sp.; strain GC 4549", "result": 8, "unit": "µg/mL"}, {"measurement": "MIC Coagulase Negative Staphylococcus (GC 4551)", "setting": "Staphylococcus sp.; strain GC 4551", "result": 16, "unit": "µg/mL"}, {"measurement": "MIC Coagulase Negative Staphylococcus (GC 6257)", "setting": "Staphylococcus sp.; strain GC 6257", "result": 8, "unit": "µg/mL"}, {"measurement": "MIC Streptococcus pneumoniae (ATCC 6301)", "setting": "Streptococcus sp.; inoculum 5×10^5 CFU/mL", "result": 1, "unit": "µg/mL"}, {"measurement": "MIC Streptococcus pneumoniae (GC 1894)", "setting": "Streptococcus sp.; inoculum 5×10^5 CFU/mL", "result": 0.25, "unit": "µg/mL"}, {"measurement": "MIC Streptococcus pyogenes (GC 4563)", "setting": "Streptococcus sp.; inoculum 5×10^5 CFU/mL", "result": 1, "unit": "µg/mL"}, {"measurement": "MIC Streptococcus agalactiae (GC 4564)", "setting": "Streptococcus sp.; inoculum 5×10^5 CFU/mL", "result": 2, "unit": "µg/mL"}, {"measurement": "MIC Streptococcus pneumoniae (GC 4565)", "setting": "Streptococcus sp.; inoculum 5×10^5 CFU/mL", "result": 1, "unit": "µg/mL"}, {"measurement": "MIC Streptococcus pneumoniae (ATCC 6301)", "setting": "Streptococcus sp.", "result": 1, "unit": "µg/mL"}, {"measurement": "MIC Streptococcus pneumoniae (GC 1894)", "setting": "Streptococcus sp.", "result": 0.25, "unit": "µg/mL"}, {"measurement": "MIC Streptococcus pyogenes (GC 4563)", "setting": "Streptococcus sp.", "result": 1, "unit": "µg/mL"}, {"measurement": "MIC Streptococcus agalactiae (GC 4564)", "setting": "Streptococcus sp.", "result": 2, "unit": "µg/mL"}, {"measurement": "MIC Streptococcus pneumoniae (GC 4565)", "setting": "Streptococcus sp.", "result": 1, "unit": "µg/mL"}]}]}
